Results as given in patent publication US11197885B2, “Collagen enhancing agent made from low acyl gellan gum, methods of making and methods of using the same” (The University of Toledo, priority 2015, dated 2021).

Key:
[1] = molecular target: FGFR1 (Mus musculus, UniProt P16092); assay: affinity chromatography with midi-GAGR-conjugated sepharose beads, FGFR1 immunoblotting; assay type: binding; set-up: Whole mouse brains were homogenized for cytosol extraction in PMEE buffer containing 1% Igepal CA-630; from tissue; host or cells: mouse brain (cerebral cortex / whole brain) detergent extract; conditions: 0.5% Igepal CA-630 PMEE buffer
Chain of FGFR1 (P16092 22-822): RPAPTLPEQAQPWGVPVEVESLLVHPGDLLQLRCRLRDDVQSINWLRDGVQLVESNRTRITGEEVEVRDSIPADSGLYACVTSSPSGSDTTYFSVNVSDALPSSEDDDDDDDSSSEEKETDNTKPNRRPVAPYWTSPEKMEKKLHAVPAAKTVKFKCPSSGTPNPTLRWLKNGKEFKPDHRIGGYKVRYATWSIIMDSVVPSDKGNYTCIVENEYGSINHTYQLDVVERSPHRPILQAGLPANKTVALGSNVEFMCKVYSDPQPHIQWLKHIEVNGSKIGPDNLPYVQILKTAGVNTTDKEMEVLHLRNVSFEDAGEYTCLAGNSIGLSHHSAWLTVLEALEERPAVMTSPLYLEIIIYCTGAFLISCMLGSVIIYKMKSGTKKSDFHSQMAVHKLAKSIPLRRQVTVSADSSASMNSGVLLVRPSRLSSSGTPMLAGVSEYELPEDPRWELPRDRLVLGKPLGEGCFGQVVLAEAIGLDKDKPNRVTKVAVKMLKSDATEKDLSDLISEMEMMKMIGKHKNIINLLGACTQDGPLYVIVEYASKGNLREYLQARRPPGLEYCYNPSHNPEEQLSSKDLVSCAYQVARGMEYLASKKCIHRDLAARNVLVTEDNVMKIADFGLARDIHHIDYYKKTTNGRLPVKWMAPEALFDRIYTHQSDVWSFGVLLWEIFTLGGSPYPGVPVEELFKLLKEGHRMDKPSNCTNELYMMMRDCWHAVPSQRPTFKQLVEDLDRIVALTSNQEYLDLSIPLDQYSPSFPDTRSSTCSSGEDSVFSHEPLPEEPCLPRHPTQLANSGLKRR
Experimental: To examine whether midi-GAGR interacts with synaptosomal FGFR1 or not, an affinity chromatography using midi-GAGR-conjugated sepharose beads was performed. Either midi-GAGR or dextran were conjugated to epoxy-activated sepharose 6B that is a pre-activated medium that can be conjugated to the hydroxyl groups of carbohydrates. Briefly, 200 μL of 7.4 mM midi-GAGR or 5 kD dextran in H2O was mixed with 200 μL of epoxy-activated sepharose beads in a microtube and incubated on a rotator (16 h, 37° C.). The mixture was spun down at 1,000×g (10 min) to separate bead-bound polysaccharides from unbound. Unoccupied active sites on beads were blocked by incubation (4 h, 45° C.) in 1 M ethanolamine (pH 8). Then, beads were washed with three cycles of alternating pH solutions—0.1 M acetate buffer (pH 4) and 0.1 M Tris-HCl buffer (pH 8), both containing 0.5 M NaCl. The conjugation of polysaccharides to beads was confirmed by phenol-sulfuric acid colorimetry. Cerebral cortices were dissected from four female mice (BALB/C, 8 wks old) and homogenized with a hand grinder in 1 mL of PMEE homogenization buffer plus 1% Igepal CA-630 and protease inhibitors (PIs). The homogenate was centrifuged at 1,000×g (10 min) to remove nuclei and undisrupted cells. The supernatant was subjected to 5-6 strokes through 27G needle. Post-nuclear supernatant was centrifuged at 1,000×g (15 min). […]

[2] = tested on: phosphorylated CREB in differentiated PC12 cells; assay: nuclear p-CREB immunostaining in differentiated PC12 cells; assay type: cell-based; conditions: 1 μM, 24 h
Experimental: Differentiated PC12 cells and mouse embryonic cortical neurons (E17, DIV14) were treated with mock, dextran, alginate, HA-GAGR, or midi-GAGR (1 μM) for 24 h and fixed in 3.7% paraformaldehyde. The fixed cells and neurons were immunostained with antibodies against α-tubulin and phosopho-CREB (p-CREB) along with DAPI (nucleus).

[3] = tested on: primary mouse cortical neurons (E17, DIV4); assay: neurite outgrowth in primary mouse cortical neurons; assay type: cell-based; conditions: 2 days; midi-GAGR, dextran, alginate 1 μM; LA-GAGR 0.1 μM; HA-GAGR 0.01 μM
Experimental: To analyze the effect of polysaccharides on neurite outgrowth, primary mouse cortical neurons were treated with vehicle (H2O) or 1 μM of dextran, alginate, or midi-GAGR, 0.01 μM of HA-GAGR, or 0.1 μM of LA-GAGR for 2 days prior to immunocytochemistry using anti-α-tubulin antibody and secondary Alexa488nm antibody. An etched grid coverslip containing 200 numbered boxes was used to select neurons objectively for image acquisition and analysis. A total of 24 boxes were randomly selected per treatment group. All the neurons having total neurite length longer than 4 times of the diameter of neuron cell body were chosen for image analysis. The total length of the neurites of each neuron was measured using Metamorph and used to calculate average total neurite length. To examine the effect of polysaccharides on the phosphorylation (activation) of nuclear CREB, neurons were stained with anti-pCREB antibody (Abcam & Santa Cruz biotechnologies, 2nd antibody with Alexa568nm), anti-α-tubulin antibody (Sigma, 2nd antibody with Alexa488nm), and DAPI (Sigma) after two-day incubation with vehicle (H2O) or 1 μM of dextran, alginate, or midi-GAGR, 0.01 μM of HA-GAGR, or 0.1 μM of LA-GAGR. […] The images of neurons on coverslips were taken by confocal microscopy at the same gain (850), offset (−0.01), and exposure time (2 sec). The intensity of the staining of nuclear pCREB was measured using Metamorph and used to calculate average intensity. In addition, the phosphorylation of CREB in the cytosols of mouse cortical neurons treated with polysaccharides were detected by immunoblotting. Primary mouse neurons were dissected from 16 mouse embryos (E17) and plated in the wells of 6-well plates (1×10^6 cells/well), differentiated for 6 days, and treated with polysaccharides for 48 h. […] The protein bands on blots recognized by anti-pCREB (Santa Cruz Biotechnologies) and anti-CREB antibodies were detected on Amersham Hyperfilm™ ECL films (GE Healthcare Life Science) using SuperSignal® West Pico Chemiluminescent Substrate (Thermo Scientific).

[4] = tested on: rat embryonic cortical neurons exposed to 25 μM 4-HNE; assay: neuritic atrophy caused by 4-HNE in cortical neurons; assay type: cell-based; conditions: pre-treatment 2 days (1 μM; ascorbate 100 μM), then 25 μM 4-HNE 1 day
Experimental: Rat embryonic cortical neurons were treated with mock (FIG. 11C), 1 μM HA-GAGR (high acyl gellan gum), 1 μM dextran, 100 μM ascorbate, or 1 μM midi-GAGR (FIG. 13A) for 2 days and then with 25 μM 4-hydroxynonenal (4-HNE), a lipid peroxide, for 1 day. After fixation, neurons were immunostained with anti-synaptophysin antibody (green) and rhodamine-phalloidin (actin: red). Scholl ring analysis was performed.

With dextran the “FGFR1 pulled down from brain extract by polysaccharide-conjugated beads” value [1] was “not”, the “increase in levels of nuclear p-CREB” value [2] was “not significantly increased” and the “fold change in average total neurite length vs vehicle” value [3] was “did not enhance neuritogenesis”. For the same substance, the “neurites in the presence of 4-HNE (neuritic atrophy)” value [4] was “lost neuritis”.
